{"source": "patent US7820692B2", "about": "“Tetrahydro isoquinoline derivatives, preparation methods and medicinal uses thereof” (China Pharmaceutical University, priority 2006, dated 2010)", "key": {"[1]": {"biological_target": "μ-opioid receptor (Homo sapiens, UniProt P35372)", "experiment": "Radioligand receptor binding assay, competition with [3H]diprenorphine, μ-receptor", "procedure": "(§1) The experiment test tubes are divided into total binding tubes and non-specific binding tubes, and several groups of sample tubes added with competitive ligand in different concentrations are provided. The total binding tube is added with expressed membrane receptor protein equivalent to 20 μg and [^3H] diprenorphine (0.5 nM) (1.44 Pbq/mol broad spectrum opioid antagonist, Amersham), the corresponding non-specific binding tubes are further added with 1 μM Naloxone (broad spectrum opioid antagonist, Sigma), the sample tubes are added with different concentrations compounds which are to be screened, the final volume is regulated to 100 μl with 50 mM Tris(Amresco)-HCl (pH 7.4). Incubation is performed at 30° C. for 30 min, and the tubes are placed into ice water to stop reaction. Negative pressure filter is performed in Millipore sample collector via GF/(Whatman) glass fiber filter paper. Ice cold 50 mM Tris-HCl (pH 7.4) is used to wash the filter paper for three times, each for 4 ml; Dry the filter paper and place it in 0.5 ml Eppendorff tube, and add 0.5 ml of lipophilic scintillator liquid (Reagent No. 1 Factory Of Shanghai Chemical Reagent Co. Ltd). Beckman LS 6500 multifunctional liquid scintillation counter is adopted for measuring radiation intensity, calculating inhibition rate is calculated, each concentration has three duplicated tubes, and each tube is independently tested for 3-4 times.\n(§2) IC50 value is calculated by software Prism 4.0.\n(§3) Ki=IC50/(1+[L]/Kd), ([L] is the concentration of added marked ligand, and Kd is equilibrium dissociation constant of radioligand)."}, "[2]": {"experiment": "Acute toxicity test of compound I-6", "type": "in vivo, mice", "settings": "both sexes, Kunming, mouse, in vivo, intraperitoneal; peritoneal administration, mice, observation two weeks", "procedure": "(§4) Acute toxicity of compound I-6 is determined according to Methodology of Pharmacological Experiment, edition II, Xu Shuyun (People's Medical Publishing House, 1991), and An Introduction of the Assessment for Novel Drugs, edition II, Qin Boyi (People's Medical Publishing House, 1999).\n(§5) Kunming mice (body weight 18-22 g, female 6 weeks old, male 4-5 weeks) are provided, randomly divided into groups each having 20 mice (half female, half male). The mice are subjected to adaptive feeding for 1-2 days before administration. Compound I-6 is administered peritoneally for 4 dosage groups, 60 mg/kg, 50 mg/kg, 40 mg/kg, and 30 mg/kg. The mice are normally fed after administration, their conditions, such as drinking, feeding, excreting, activity, and hair color, are observed everyday, their body weights are weighed every other day, and the observation lasts for two weeks."}, "[3]": {"test_system": "Kunming mice", "experiment": "Acute toxicity test of compound I-6", "type": "in vivo", "settings": "peritoneal administration at 30 mg/kg", "procedure": "as §4, §5"}, "[4]": {"test_system": "Kuming mice", "experiment": "Mice writhing assay (acetic acid) analgesic test", "type": "in vivo", "settings": "subcutaneous injection, 0.6% acetic acid after 30 min, writhing within 15 min", "procedure": "(§6) Analgesic efficacy of the subject compound is determined by using model derived from mice hot plate method and mice writhing method (Methodology of Pharmacological Experiment, edition II, Xu Shuyun, People Medical Publishing Company, 1991).\n(§7) • (1) Selection of normal mice: the test room temperature is controlled at about 22° C., temperature of the hot plate of an pain threshold dector is regulated to 55° C., the duration from the moment the mice is put on the hot plate to the moment the mice start to lick the hind paw is recorded as pain threshold value, the test is repeated twice at interval of 20 min, and the mice with average pain threshold value no more than 30 sec is qualified mice. • (2) Experimental mice: the qualified mice are randomly divided into groups each having 10 mice, and subjected to subcutaneous injection. • Each group is tested for mice pain response time once every 5, 15, 30, 50, and 60 minute after administration, and the medicine is believed to be effective which response time beyond 1 min. • Mice Writhing Assay • I-6 is administered via subcutaneous injection, then 0.6% acetic acid solution (10 ml/kg) is administered after 30 min, and the number of the mice writhing within 15 min is recorded. 3."}, "[5]": {"test_system": "Kuming mice", "experiment": "Analgesic tolerance test (hot plate, 9 days administration)", "type": "in vivo", "settings": "I-6 25 μg/kg subcutaneous injection Day 1-9, hot plate", "procedure": "Kuming mice (18-20 g, male) are selected for test, and divided into physiological saline group, morphine group, and I-6 group.\nphysiological saline group: subcutaneous administration, 0.2 mL for each mice.\nMorphine group: Day 1-3, subcutaneous injection, 7 mg/kg • Day 4-7, subcutaneous injection, 10 mg/kg • Day 8-9, subcutaneous injection, 15 mg/kg I-6 group: Day 1-9, subcutaneous injection, 25 μg/kg\nHot plate method in mice is adopted as model, administration lasts for 9 days, analgesic effects before and after administration are determined every day, and if analgesic effect is attenuated after continuous administration of 3 days, the drug concentration will be increased, and if analgesic effect don't change, the drug concentration will not be changed."}, "[6]": {"test_system": "Kuming mice", "experiment": "Physical dependence test after chronic administration (Naloxone-induced jumping and weight reduction)", "type": "in vivo", "settings": "escalating 50-300 μg/kg s.c. twice daily for 10 days, then Naloxone 3 mg/kg peritoneally", "procedure": "Kuming mice (18-20 g, male) are selected, and divided into physiological saline group, morphine group, and I-6 group.\nphysiological saline group: subcutaneous injection, 0.2 mL for each mice, continuous administration for 10 days.\n(§8) morphine group: subcutaneous injection, administration according to an escalating dose schedule, 20, 40, 60, 80, 100 mg/kg, continuous administration for 10 days, two injections per day at 8 hours interval, administration with escalating concentration, and 100 mg/kg is maintained from the fifth injection until Day 10.\nas §8, with “I-6” for “morphine”, “50, 100, 150, 200, 300 μg/kg,” for “20, 40, 60, 80, 100 mg/kg,”, “300 μg/kg” for “100 mg/kg”\n2 hours after the end administration on the Day 10, each group is peritoneally administered with Naloxone 3 mg/kg, and jump times and weight reduction of mice within 20 min in each group are observed."}, "[7]": {"biological_target": "κ-opioid receptor (Homo sapiens, UniProt P41145)", "experiment": "Radioligand receptor binding assay, competition with [3H]diprenorphine, κ-receptor", "procedure": "as §1, §2, §3"}, "[8]": {"test_system": "Kuming mice", "experiment": "Mice hot plate method analgesic test", "type": "in vivo", "procedure": "as §6\nExperiment Animal: Kuming Mice (Female, 18-22 g)\nas §7"}, "[9]": {"test_system": "Kuming mice", "experiment": "Influence of compound I-6 on physical dependence caused by morphine", "type": "in vivo", "settings": "I-6 300 μg/kg peritoneally 10 min before morphine every day", "procedure": "Kuming mice (18-20 g, male) are selected and divided into physiological saline group, morphine group, and I-6+morphine group.\nphysiological saline group: subcutaneous injection, 0.2 mL for each mouse, continuous administration for 10 days.\nas §8\nI-6+morphine group: subcutaneous injection of morphine according to 20, 40, 60, 80, 100 mg/kg, continuous administration for 10 days, two injections per day at 8 hours interval, administration with escalating concentration, and 100 mg/kg is maintained from the fifth injection until Day 10; 300 μg/kg of compound I-6 is administered peritonally 10 min before administration of morphine every day.\n2 hours after the end administration on Day 10, each group is peritoneally administered with Naloxone 3 mg/kg, and jump times and weight reduction of mice within 20 min in each group are observed."}}, "data": [{"molecule": "O=C1CC(C(=O)N2CCc3ccccc3C2CN2CCCC2)c2cc(Cl)ccc21", "note": "(stereo not shown) [I-6, 1-(pyrrolidine-1-methyl)-2-(6-chloro-2,3-dihydro-inden-3-keto-1-carbonyl)-1,2,3,4-tetrahydroisoquinoline]", "values": [{"measurement": "Ki", "setting": "[1]; Ki=IC50/(1+[L]/Kd)", "result": 668, "unit": "nM"}, {"measurement": "IC50", "setting": "[1]; competition binding, μ-opioid receptor", "result": 2000, "unit": "nM"}, {"measurement": "receptor selectivity μKi/κKi", "setting": "[1]; ratio of μ Ki to κ Ki", "result": 22341}, {"measurement": "LD50 at 2 weeks", "setting": "[2]", "result": 40.1, "unit": "mg/kg"}, {"measurement": "influence on drinking, feeding, excreting, activities and hair color", "setting": "[3]", "result": "no influence"}, {"measurement": "Analgesic experiment result, Mice writhing assay", "setting": "[4]", "result": "3.313(1.775-6.183) ug/kg"}, {"measurement": "analgesic tolerance", "setting": "[5]", "result": "does not produce significant tolerance phenomena"}, {"measurement": "physical dependence after continuous administration", "setting": "[6]", "result": "causes no physical dependence like morphine"}, {"measurement": "Ki", "setting": "[7]; Ki=IC50/(1+[L]/Kd)", "result": 0.0299, "unit": "nM"}, {"measurement": "dpm", "setting": "[7]; competition binding with κ-receptor, compound at 1 × 10^−5 M, [3H]diprenorphine 0.5 nM", "result": 201.00, "unit": "dpm"}, {"measurement": "IC50", "setting": "[7]; competition binding, κ-opioid receptor", "result": 0.105, "unit": "nM"}, {"measurement": "inhibition at 10 µM", "setting": "[7]; compound at 1 × 10^−5 M, read-out: inhibition rate %", "result": 100, "unit": "%"}, {"measurement": "analgesic efficacy compared with morphine", "setting": "[8]; mice hot plate method and mice writhing method", "result": "powerful analgesic efficacy"}, {"measurement": "Analgesic experiment result, Mice hot plate method", "setting": "[8]; subcutaneous injection, hot plate 55° C., value with range in brackets", "result": "25.000(18.675-33.467) ug/kg"}, {"measurement": "effect on physical dependence caused by morphine", "setting": "[9]; 10 days", "result": "can resist physical dependence caused by morphine"}, {"measurement": "jump times of Naloxone-induced mice", "setting": "[9]; Naloxone 3 mg/kg on Day 10", "result": "significantly reduce jump times"}]}]}
